{"source": "patent US20210308077A1", "about": "“COMBINATIONS INCLUDING BETA-ADRENORECEPTOR AGONISTS FOR TREATMENT OF PARKINSON`S DISEASE AND MOVEMENT DISORDERS” (The Brigham and Women`s Hospital, Inc., priority 2017, published 2021)", "key": {"[1]": {"tested_on": "SNCA mRNA", "assay": "endogenous SNCA mRNA expression in SK-N-MC neuroblastoma cells (screening, replication, confirmation; qPCR)", "assay_type": "cell-based, human", "procedure": "Human neuroblastoma SK-N-MC cells were acquired from American Type Culture Collection (ATCC). Cells were cultured at 37° C. in 5% CO2 in DMEM/F12 supplemented with 10% fetal bovine serum (FBS) and 100 units per ml penicillin and streptomycin. The drug library was obtained from the Laboratory for Drug Discovery in Neurodegeneration (LDDN), Harvard NeuroDiscovery Center, Boston, Mass. The drug library consisted of approximately 1,126 small molecules. About 586 of the compounds were from Prestwick Chemical's (Illkirch, France) library, a unique collection of mostly off-patent small organic molecules, 90% being marketed drugs and 10% bioactive alkaloids or related substances. About 400 compounds were from the SPECS collection (available on the world wide web at.specs.net). 140 compounds generated in house by the LDDN were also included in the library. Compounds for the screening were stored as DMSO stocks. All drugs used for Confirmation Assay were purchased from Sigma (St. Louis, Mo.).\nApproximately 2×10^4low passage SK-N-MC cells were seeded per well in 384-well cell culture plates for 24 hours. Compounds were then transferred into each well (final concentration 1 μM) by using a BioMekFX (Beckman Coulter) equipped with a 384-channel pipetting head. After 48 hours in cell culture incubator, cells were washed once in cold phosphate-buffered saline (PBS) by using BioTek ELx405 select CW plate washer and then lysed at room temperature (22-24° C.) with lysis buffer (Applied Biosystems) using the Cell-to-CT procedures according to the manufacturer's instructions (Applied Biosystems). After 5 min, lysis was terminated by incubation with stop solution (Applied Biosystems). 11 μL of each lysate were transferred to 384-well plates for RT in a total volume of 25 μl. 4 μL of RT reaction were then transferred to new 384-well plates for qPCR.\nUsing the Cell-to-CT kit (Applied Biosystems) we performed expression analysis directly from SK-N-MC neuroblastoma cells cultured in 384-well plates through in situ cDNA synthesis. In this miniaturized assay, high copy numbers of SNCA and of endogenous controls were detected as indicated by raw cycle threshold values of 25.11±0.02 (mean CT value±SEM) and 20.2±0.02 for SNCA and Ubiquitin C (UBC), respectively. Technical variation (using identical cDNA loaded in multiple wells) and biological variation (cDNA synthesized in situ in each of 384 wells of cultured SK-N-MC cells treated with DMSO) were low, with coefficients of variation of 1% and 5.2% respectively. At least ten DMSO-treated controls were included on each 384-well plate as negative external control and calibrator. An equal amount of cDNA derived from Universal Reference RNA was spotted on all plates as plate-to-plate control. Control reactions lacking template or reverse transcription were assayed for contamination with genomic DNA.\n41 compounds were forwarded into the Replication Assay. For each compound eight wells were treated with drug and compared to eight wells treated with DMSO alone. The Cell-to-CT procedure was employed using two new reference genes, ribosomal protein L13 (RPL13) and glucuronidase beta (GUSB) (instead of UBC) to control for input RNA. […] 10 compounds met these criteria and were forwarded from the Replication into the Confirmation Assay.\nThe ten forwarded compounds were used in the Confirmation Assay. For each compound ten wells were treated with drug and compared to ten wells treated with DMSO alone. RNA was extracted using TRIzol® following the manufacturers protocol (Life Technologies). Freshly ordered compounds were used. […] Six compounds met these criteria and were forwarded from the Confirmation Assay to the ELISA Assay stage (see below).\nTotal RNA from flash-frozen mice brain tissue, rodent primary cells, human neuroblastoma cells and iPSC-derived neuronal cells was isolated using TRIzol® (Life Technologies) following the manufacturer's protocol. […]"}, "[2]": {"tested_on": "Snca mRNA", "assay": "Snca mRNA in rat primary cortical neurons", "assay_type": "cell-based", "conditions": "metaproterenol 5 μM, clenbuterol 20 μM, salbutamol 10 μM, 48 hours", "procedure": "Primary cortical cultures were generated from E18 Sprague-Dawley rat embryos. The cortical region was dissected out in Hank's Balanced Salt Solution buffered with Hepes and dissociated with 0.125% trypsin (Invitrogen) for 17 min at 37 ° C., followed by trituration. Dissociated cells were plated at a density of 5×10^5 cells/well or 2.5×10^5 cells/well in 12-well or 24-well plates, respectively precoated with poly-D lysine (100 μg/mL). The cells were cultured in Neurobasal medium with B-27 supplement (Invitrogen) and glutamax and gentamycin. Half of the medium was changed every 4 days. Cortical neurons were treated with β2AR agonists 10 days post plating. They were then harvested 48 hours post-treatment for mRNA extraction and 72 hours post-treatment for protein extraction.\nTotal RNA from flash-frozen mice brain tissue, rodent primary cells, human neuroblastoma cells and iPSC-derived neuronal cells was isolated using TRIzol® (Life Technologies) following the manufacturer's protocol. RNA concentration was measured using NanoDrop spectrophotometer (Thermo Fisher Scientific, Wilmington, De.). 2 μg of total RNA was reverse transcribed into cDNA using the High Capacity cDNA Reverse Transcription Kit from Applied Biosystems. Quantitative PCR was performed using TaqMan Universal PCR Master Mix (Applied Biosystems) on an ABI 7900HT instrument (Applied Biosystems) as described previously (31). For mouse brain tissue and rat primary cortical neuron samples, rodent-specific TaqMan Assay on-demand primers and probes were used to assay the relative abundance of target genes, and rodent Rp113 was used as a reference gene to normalize for RNA loading. Similar results were obtained when Actb or Ubc were used as controls for input RNA. For human neuroblastoma and iPSC-derived neuron samples, human TaqMan Assay on-demand probes were used to assay the relative abundance of target genes, and the geometric mean of the three human reference genes RPL13, GUSB and UBC was used to normalize for RNA loading. Expression values were analyzed using the comparative threshold cycle method (31)."}}, "data": [{"compound": "CC(C)NCC(O)COc1cccc2ccccc12", "note": "(centres unmarked) [Propranolol, propranolol]", "values": [{"measurement": "endogenous SNCA mRNA under β2AR antagonism", "setting": "[1]; SK-N-MC cells", "value": "increased"}, {"measurement": "effect of co-treatment on clenbuterol's SNCA expression-lowering effects", "setting": "[1]; SK-N-MC cells, co-treatment with clenbuterol", "value": "blocked clenbuterol's SNCA expression-lowering effects"}]}, {"compound": "CC(C)(C)NCC(O)c1ccc(O)c(CO)c1", "note": "(centres unmarked) [Salbutamol, salbutamol]", "values": [{"measurement": "endogenous Snca mRNA", "setting": "[2]", "value": "significantly, but modestly, reduced"}, {"measurement": "SNCA mRNA expression, dose dependence", "setting": "[1]; SK-N-MC cells, indicated doses, 48 hours", "value": "lowered SNCA mRNA expression in a dose-dependent manner"}]}, {"compound": "CC(C)(C)NCC(O)c1cc(Cl)c(N)c(Cl)c1", "note": "(centres unmarked) [clenbuterol]", "values": [{"measurement": "endogenous Snca mRNA", "setting": "[2]", "value": "significantly, but modestly, reduced"}, {"measurement": "SNCA mRNA levels after 14 days", "setting": "[1]; SK-N-MC cells, 10 μM, 14 days", "value": "lowered"}, {"measurement": "α-synuclein mRNA levels with increasing concentrations", "setting": "[1]; SK-N-MC cells, 5, 10, 20 μM, four days", "value": "decrease in α-synuclein mRNA"}, {"measurement": "relative SNCA mRNA abundance (with H3K27Ac blot)", "setting": "[1]; SK-N-MC cells, vs vehicle-treated cells", "value": "decreased"}]}]}
